For one data set, the system named is P. capitis nits. The data set can be described thus: Visualizing nits on human hair under UV light. As to conditions: hair with attached nits dipped into 1% solution for two minutes, examined wet under UV light. From the text: Human hair with attached P. capitis nits obtained as a waste product after barbering were obtained and dipped into a 1% solution of calcofluor white for two minutes. The hair was removed and examined wet under UV light. […] Identification was easy, specific, and totally unambiguous.

In the next data set the test system is deer ticks. Put plainly: Visualizing deer ticks under long range UV light. The arrangement: species or system deer tick. The source says: Use as a visualizing agent for deer ticks was investigated as well. Live deer ticks were gathered from a wooded area in Westchester County, N.Y. and sprayed with a 1% solution of Calcofluor white. The ticks were placed on a white cotton sheet and exposed to long range UV light from a portable UV lamp.

A short description of data set [1]: Toxicity: solution spread on dorsum of hands of volunteers. As to conditions: 1% solution on dorsum of hands, 12 hours continuously. The data set is classed as in vivo, human. How it is done: The 1% solution was also spread on the dorsum of four hands of volunteers and allowed to remain continuously for 12 hours before being washed off.

Take `O=S(=O)(O)c1cc(Nc2nc(Nc3ccccc3)nc(N(CCO)CCO)n2)ccc1/C=C/c1ccc(Nc2nc(Nc3ccccc3)nc(N(CCO)CCO)n2)cc1S(=O)(=O)O` [calcofluor white]: the “visualization of nits (fluorescence) under UV light” value in the data set with P. capitis nits is on record as “clearly seen as brightly fluorescent white ovoid bodies”. For the same molecule, the “visualization of deer ticks (fluorescence) under long range UV light” value in the data set on deer ticks (live ticks sprayed with 1% solution, on white cotton sheet, portable UV lamp) is given as “easily visualized as brightly fluorescent objects”. Moreover, in the data set on deer ticks (ticks without autofluorescence, then sprayed and exposed to ultraviolet light), the “fluorescence of deer ticks after subsequent spray” value is given as “intense fluorescence”. Moreover, in data set [1], the “physical reactions such as pruritus, erythema, induration or discoloration” value is “did not provoke any physical reactions” and the “physical sensation on skin” value was “caused no physical sensation”.

The values above are taken from patent US6875421B2, “Method for detecting chitin-containing organisms” (Albert Einstein College of Medicine of Yeshiva University, priority 1997, dated 2005).
